This note sets out measurements from PubChem BioAssay AID504672 (Sanford-Burnham Center for Chemical Genomics, 2011).

The structures appear in SMILES notation. The source made the active and inactive calls. No stated cut-off is given here; in the data, active means IC50 below about 71 µM; inactive means the rest.

The subject of this assay is S. cerevisiae tim10 strain, luminescence counterscreen. Kind of assay: signal inhibition in TIM10 yeast counter-screen, dose response, counter-screen for tim23-1 inhibitor project, luminescence, S. cerevisiae, uHTS hits (AID 504672).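 Further: yeast grew roughly 22 hours at 25 °C before the luminescence read.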 For orientation: A counterscreen serves to expose hits that act by an unwanted route or on another target.
Turning to `Cc1ccc2c(c1)C(=O)N1[C@H]3c4ccccc4OC[C@@H]3[C@H](c3ccccc3)[C@]1(C)C(=O)N2`, the IC50 – broadly, the point on the concentration scale where inhibition reaches its midpoint – is 3.54 µM.
For the molecule `CCCCc1cc(O)c(CCCC)c(O)c1`, the 50% inhibitory concentration (IC50) is 1.21 µM.
Then `Cc1ccc2nc(N3CCN(C=O)CC3)nc(-c3ccccc3)c2c1`, with 9.88 µM; and `Cc1ccc2nc(N3C(=O)CNC3=S)sc2c1`, with 21.1 µM; and `Brc1ccc(OCc2nnnn2-c2ccccc2)cc1`, with 11 µM.
In the case of `Cc1csc2nc(O)c(C(=O)NC3CCCCC3)c(=O)n12`, the IC50 is 9.27 µM.
Then `COc1ccc(NC(=O)Nc2nc3c(s2)CCCC3)cc1`, with 14.5 µM; and `O=C(/C=C\Nc1cccc(F)c1)c1cccs1`, with 16.6 µM; and `CC(C)(C)c1ccc(Oc2ccc(N)cc2)cc1`, with 13.7 µM.
Then `Oc1ccccc1C1NN=C(c2ccccc2)S1` (centres undefined), with > 100 µM (inactive); and `Cc1ccc2nc(-c3ccc(N)cc3)sc2c1`, with 17.4 µM.
Consider `Cn1cccc1-c1nc2ccc(NC(=O)c3cccs3)cc2[nH]1`, for which the IC50 was 28.2 µM.
With `CCCCCCn1c(=O)c(-c2ccccc2)c(O)c2ccccc21`, the IC50 is 11.4 µM.
On to `CCOC(=O)c1c(NC(=O)CSc2nnnn2-c2ccc(OC)cc2)sc(C)c1C`, for which the IC50 is 11.6 µM.
The result for `CCN(CC)c1ccc(C(=O)Nc2cccc(F)c2)cc1` reads 5.64 µM; that for `c1ccc2[nH]c(CSc3nc4ccccc4o3)nc2c1`, 18.6 µM.
The result for `COc1cccc(Nc2nc3ccc(OC)cc3s2)c1` reads 11.2 µM; that for `O=C(CCl)Nc1cccc(-c2cnc3ccccc3n2)c1`, 14.6 µM; that for `CC1(C)CC(n2c(NCCO)nc3c(c2=O)C2(CCCC2)Cc2ccccc2-3)CCO1` (centres undefined), 12.4 µM.
Then `CSc1nnc(C(C)(C)C)c(=O)n1/N=C/c1ccccc1`, with 56.6 µM; and `N#C/C(=C\c1ccc(Cl)cc1)C(=O)Nc1cccnc1`, with 24.3 µM.
On to `O=C(Nc1nc(-c2cccs2)c(-c2ccccc2)s1)c1ccco1`, for which the half-inhibitory concentration (IC50) was 28.6 µM.
For the molecule `Cc1oc2cc(O)cc(O)c2c(=O)c1-c1ccc2c(c1)OCCCO2`, the IC50 is 10.7 µM.
The result for `COc1cccc(C(=O)Nc2ccccc2)c1` reads 24.4 µM.
As for `COc1ccccc1C(=O)Nc1nnc(-c2ccc3c(c2)CCCC3)o1`, the IC50 is 14.7 µM.
Then `CC(=O)Nc1ncnc2c1c(-c1ccc(Cl)cc1)nn2C(C)(C)C`, with 9.62 µM; and `O=C(Nc1ccc2nc(-c3ccccc3)[nH]c2c1)c1cccs1`, with 3.08 µM.
The result for `CNC(=S)N/N=C/c1cc(Br)cc(Br)c1O` reads 8.2 µM; that for `COC(=O)c1c(-c2ccc(S(C)(=O)=O)cc2)sc2ccc(OC)cc12`, 11.4 µM.
Then `c1ccc(-c2cc3ccccc3cn2)cc1`, with 7.8 µM; and `COC(=O)c1ccc(NC(=O)c2nc(S(=O)(=O)Cc3cccc(C)c3)ncc2Cl)cc1`, with 2.01 µM; and `CCc1ccc2oc(-c3cc(N)ccc3Cl)nc2c1`, with 17 µM.
For `Cc1ccc(NC(=O)c2nc(S(=O)(=O)Cc3ccccc3C)ncc2Cl)cc1C`, the IC50 was 5.94 µM.
In the case of `O=c1c(O)c(-c2ccccc2)oc2cc(O)cc(O)c12`, the IC50 is 35.5 µM.
Then `Cc1ccc(S(=O)(=O)Oc2ccccc2C=C2C(=O)N(C)C(=O)N(C)C2=O)cc1`, with 4.57 µM.
On to `Nc1ccc2nc(SCc3ccccc3F)sc2c1`, for which the IC50 was 20.6 µM.
The result for `Cc1ccc(-c2nn(-c3ccccc3)cc2NC(=O)CCl)cc1` reads 26.7 µM; that for `O=C(/C=C/c1ccccc1Cl)Nc1ccccc1`, 44.7 µM; that for `Cn1c(/C(C#N)=C/c2ccncc2)nc2ccccc21`, 34.3 µM.
On to `O=Cc1ccccc1OCc1ccc2c(c1)OCO2`, for which the concentration for half-maximal inhibition (IC50) is 5.65 µM.
Then `CC(C)(C)c1csc(NC(=O)c2ccc(Br)o2)n1`, with 16.7 µM; and `O=C(c1cc(-c2ccc(O)cc2)on1)N1CCc2ccccc2C1`, with 17.1 µM; and `CC1(S(=O)(=O)O)CC(=O)c2ccccc2C1=O` (centres undefined), with 7.14 µM.
For the molecule `O=C(Nc1cccc(NC(=O)c2cccs2)c1)c1ccc(Br)o1`, the half-maximal inhibitory concentration (IC50) was 15 µM.
Then `NC(=S)N/N=C/c1coc2ccc(Br)cc2c1=O`, with 5.78 µM.
Then `CC1(C)CC(=O)C=C(c2cccc(Cl)c2O)C1`, with 13.1 µM; and `CC1=C(C)/C(=N/OC(=O)c2cccc([N+](=O)[O-])c2)C=CC1=O`, with 5.21 µM; and `c1ccc(Nc2nc(-c3ccccc3)nc3ccccc23)cc1`, with 6.7 µM.
As for `O=[N+]([O-])c1ccccc1S(=O)(=O)Nc1cccc2cccnc12`, the half-maximal inhibitory concentration (IC50) was 13.9 µM.
The result for `CCOC(=O)c1c(N)sc(C(=O)Nc2ccccc2)c1C` reads 2.25 µM.
Take `CCOc1nc2ccccc2cc1C=O`: the IC50 was 1.69 µM.
As to `O=[N+]([O-])c1cc(O)c2ncccc2c1`, the 50% inhibitory concentration (IC50) is 7.75 µM.
The result for `COc1ccc2c(c1)sc1nc(-c3ccccc3)cn12` reads 20.5 µM; that for `Cn1c(C(=O)Nc2ccc3c(c2)OCCO3)cc2sccc21`, 7.59 µM; that for `Cc1cnc(NC(=O)c2sc(Nc3ccccc3)nc2N)o1`, 28 µM.
In the case of `O=Cc1cccnc1SCc1ccccc1`, the IC50 was 12.1 µM.
Then `CCOC(=O)Nc1ccc2c(c1)Nc1ccccc1S2`, with 12.7 µM; and `CCc1ccc(NC(=O)/C(C#N)=C/c2ccncc2)cc1`, with 12.6 µM; and `COC(=O)c1ccc(C(=O)OC)c(NC(=O)CSc2cccc[n+]2[O-])c1`, with 10.6 µM.
With `Cc1cc2cc(CNC(=O)c3ccc(C)c([N+](=O)[O-])c3)ccc2[nH]1`, the half-maximal inhibitory concentration (IC50) is 31 µM.
Take `O=C1/C(=C/c2cccs2)COc2ccccc21`: the concentration for half-maximal inhibition (IC50) was 7.66 µM.
Then `COc1cc2c3c(c1)C(C)=CC(C)(C)N3C(=O)C2=O`, with 16 µM; and `O=C1c2ccccc2C(=O)N1c1nc(-c2cccs2)cs1`, with 6.52 µM.
Consider `COc1cc(NC(=O)c2cccs2)ccc1NC(=O)c1ccccc1Cl`, for which the IC50 is 16.2 µM.
The result for `COCCNC(=O)/C(C#N)=C/c1ccc(OCc2ccccc2)cc1` reads 16.6 µM; that for `COc1cc2c3c(c1)C(C)CC(C)(C)N3C(=O)C2=O` (centres undefined), 13.8 µM.
The result for `N=c1c2c(-c3ccccc3)c(-c3ccccc3)n(Cc3ccco3)c2ncn1Cc1ccco1` reads 14.6 µM.
With `Cc1nc2ccc(C(C(F)(F)F)(C(F)(F)F)C(F)(F)F)cc2[nH]1`, the half-inhibitory concentration (IC50) was 19.9 µM.
Then `O=C(N/N=C/C=C\c1ccco1)c1cccs1`, with 70 µM; and `O=C(COC(=O)CC1CCCC1)Nc1ccc(Cl)cc1`, with 7.89 µM.
On to `O=C(Nc1ccc(OC(F)(F)F)cc1)N1CCN(c2ccnc3cc(Cl)ccc23)CC1`, for which the 50% inhibitory concentration (IC50) is 10.2 µM.
Turning to `Clc1nssc1=Nc1nncs1`, the half-maximal inhibitory concentration (IC50) is 2.6 µM.
On to `CCOC(=O)c1sc(=NC(=O)c2ccco2)n(C)c1C`, for which the IC50 was 46.5 µM.
For `C/C=C/c1ccc(OCCOc2cc(C=O)ccc2OC)c(OC)c1`, the IC50 is 16.8 µM.
Then `O=C(N/N=C/c1coc2ccc(Cl)cc2c1=O)c1cc(O)cc(O)c1`, with 44.8 µM; and `CCSc1ncc(/C=N/Nc2ccc(Cl)cc2)n1C`, with 10.9 µM; and `CC1c2[nH]c3ccccc3c2CCN1C(=O)Nc1ccccc1` (centres undefined), with 14 µM.
The result for `O=C(COc1ccccc1)N/N=C/c1ccc([N+](=O)[O-])o1` reads 10.8 µM; that for `Cc1cc(Nc2ccccc2)nn1C(=O)c1ccccc1`, 11.3 µM.
